Experimental data from patent US20070128201A1, “Combined use of ecteinascidin-743 and platinum antineoplastic compounds” (Pharma Mar, S.A.U., priority 2003, published 2007).
Read-outs that look alike come from different tables or passages of the source.

Key:
[1] = tested on: HOC 8 human ovarian xenograft; assay: Survival of mice bearing intraperitoneal HOC 8 xenograft; assay type: in vivo
Text: In ovarian carcinoma patients the tumor spreads into the peritoneal cavity. Therefore to mimic clinical disease we have selected a human ovarian xenograft, HOC 8, which was transplanted intraperitoneally from ascites and disseminated in the peritoneal cavity.
When the two drugs were combined the effect was much greater than that of each drug given as single agent with a dramatic increase in survival. […] Three animals were still alive after 12 months, two of them belonging to the group receiving the high ET-743 dose. They were sacrificed and a detailed macroscopic and microscopic pathological evaluation was performed. The mouse belonging to the group receiving the low ET-743 dose was apparently cured as the microscopic analysis of liver, splen, pancreas, bone marrow, diagram, ovary uterus omentum and several lymphnodes were negative.

[2] = tested on: human, murine and canine progenitor cells; settings: cited from earlier work
[3] = Toxicity of single i.v. doses of ET-743, DDP and their combination in xenograft experiments; assay type: in vivo; settings: drug alone
Experimental: For the administration of the drugs appropriate vehicles were injected, using the same schedule and route of injection as the drug therapies. […] In xenografts transplanted s.c. tumor growth was monitored and tumor weight (TW) was determined by measuring the tumor diameters with a Vernier caliper every 2-4 days and using the formula TW=d^2×D/2 (where d and D represent the shortest and the longest diameter respectively).

[4] = tested on: Ovary, STS gyn, Uterus tumors; assay: Dose finding trial ET-743 day 1 & 8 followed by cisplatin: observed efficacy; assay type: in vivo, human
Experimental: We designed a multicenter dose finding trial, on a day 1 & 8 every 3 weeks schedule, with escalating doses of ET given as a 3-hr infusion with steroids and antiemetic prophylaxis, followed 30 minutes later by 1 hr infusion cisplatin at a fixed dose of 40 mg/m^2, with 2 L NS hydration.
(§1) 36 patients were entered (15 with ovarian cancer, 6 with uterus cancer, 14 with soft tissue sarcoma, 1 with other tumor type). Prior treatments of the patients were the following:
The following table illustrates the observed efficacy: […]

[5] = Toxicity (body weight loss, toxic deaths) of split dose Q4×3; assay type: in vivo; settings: Q4×3, 1A9 xenograft experiment
[6] = Dose finding trial ET-743 day 1 & 8 followed by cisplatin: toxicity; assay type: in vivo, human
Experimental: We designed a multicenter dose finding trial, […], with escalating doses of ET given as a 3-hr infusion with steroids and antiemetic prophylaxis, followed 30 minutes later by 1 hr infusion cisplatin at a fixed dose of 40 mg/m^2, with 2 L NS hydration.
as §1
ET-743 doses levels were 300, 400, 500, 600 and 700 μg/m^2/day; 3-6 were treated per dose level according to toxicity.
ET-743 escalation was uneventful until 500 μg/m^2; at 600 μg/m^2 patients were accrued in 2 separate risk cohort according to prior chemotherapy extent: low risk 1 regimen (LR); high risk ≧2 regimens (HR).

[7] = assay type: in vivo, human; settings: ET-743 with carboplatin at a fixed target (300 mg/m^2), cycle 1 data from 11 patients
Experimental: We designed a multicenter dose finding trial, on a day 1 every 3 weeks schedule, with carboplatin given at a fixed dose of 300 mg/m^2 as a 1 hour infusion followed by escalating doses of ET given as a 3 hours infusion with steroids and antiemetic prophylaxis.
11 patients were entered (6 with ovarian cancer, 1 with lung cancer, 4 with soft tissue sarcoma). Prior treatments of the patients were the following:
ET-743 doses levels were 500, 650 and 800 μg/m^2/day; 3-6 pts were treated per dose level according to toxicity.
The maximum tolerated dose (MTD) was defined as the highest dose level tested of the combination at which at least 2 patients experience a DLT in cycle 1. If one patient encountered drug-induced DLT during either cycle 1 or 2, up to a maximum of 6 patients could be treated at that level. If DLT was not observed in the additional patients, new patients could be treated at the next higher dose level.

| Compound | ILS ([1]; DDP monotherapy) [%] | sensitivity of hematopoietic progenitors [2] | maximal single i.v. dose that caused no toxic death [3] [mg/kg] | ILS ([1]; ET-743 0.15 mg/kg, Q4×3, monotherapy) [%] | ILS ([1]; ET-743 0.05% (printed), Q4×3, monotherapy) [%] | TTP ([4]; patient: Ovary, prior carboplatin + taxol (NC), topotecan (PD), ET-743 400 μg/m^2 D 1&8 + cisplatin, Lung) [mos] | TTP ([4]; patient: Ovary, prior carboplatin + taxol (NE), paclitaxel (PD), ET-743 600 μg/m^2 D 1&8 + cisplatin, Pelvis, liver) | BEST RESP ([4]; patient: Ovary, prior carboplatin + taxol (PR), ET-743 600 μg/m^2 D 1&8 + cisplatin, Liver Abdomen) | TTP ([4]; patient: STS gyn, prior adriamycin/ifosfamide (AD), ET-743 700 μg/m^2 D 1&8 + cisplatin, Lung) | TTP ([4]; patient: STS-gyn, prior epirubicin + ifosfamide (AD), gemcitabine (PD), ET-743 500 μg/m^2 D 1&8 + cisplatin, Abdomen) | BEST RESP ([4]; patient: STS-gyn, prior epirubicin + ifosfamide (AD), gemcitabine (PD), ET-743 500 μg/m^2 D 1&8 + cisplatin, Abdomen, wrapped cell reads Radiological PR non measurable lesions) | TTP ([4]; patient: Uterus Colon, prior carboplatin (NE), taxol + epirubicin + cisplatin (CR), ET-743 400 μg/m^2 D 1&8 + cisplatin, Bone, Pelvis, Lung) [mos] | BEST RESP ([4]; patient: Uterus Colon, prior carboplatin (NE), taxol + epirubicin + cisplatin (CR), ET-743 400 μg/m^2 D 1&8 + cisplatin, Bone, Pelvis, Lung, wrapped cell reads Radiological PR non measurable lesions) | mean body weight loss [5] [%] | MTD ([6]; ET-743 with cisplatin 40 mg/m^2, previously treated patients, day 1 & 8 every 4 weeks) [μg/m^2] | Recommended dose (RD) ([6]; human, in vivo) [μg/m^2] | MTD [7] [μg/m^2] |
| --- | --- | --- | --- | --- | --- | --- | --- | --- | --- | --- | --- | --- | --- | --- | --- | --- | --- |
| N.N.[Cl][Pt][Cl] [DDP, cis-diaminedichloroplatinum (II), reference compound] | 139 |  |  |  |  |  |  |  |  |  |  |  |  |  |  |  |  |
| COc1cc2c(cc1O)CCN[C@]21CS[C@@H]2c3c(OC(C)=O)c(C)c4c(c3[C@H](COC1=O)N1C2[C@H]2c3c(cc(C)c(OC)c3O)C[C@@H]([C@@H]1O)N2C)OCO4 (some centres unmarked) [ET-743, ecteinascidin-743] |  | equal sensitivity of erythropoid and myeloid cells | 0.2 | 23 | 21 | 6 | 6+ mos | Unc PR | 3+ mos | 5+ mos | Radiological | 1 | Radiological | 14 | 700 | 500 | 800 |
